Laboratory results as given in patent US20140221340A1 (KYOWA HAKKO KIRIN CO., LTD., priority 2011, published 2014).

Molecular target: T1, human CCR10 (Homo sapiens, UniProt P46092)
T1 construct: expressed in transfected cells; host or cells: KJMGER8 cell (cell line derived from Namalwa cell); expression induced with 10 nmol/L β-estradiol
T1 sequence (P46092 1-362): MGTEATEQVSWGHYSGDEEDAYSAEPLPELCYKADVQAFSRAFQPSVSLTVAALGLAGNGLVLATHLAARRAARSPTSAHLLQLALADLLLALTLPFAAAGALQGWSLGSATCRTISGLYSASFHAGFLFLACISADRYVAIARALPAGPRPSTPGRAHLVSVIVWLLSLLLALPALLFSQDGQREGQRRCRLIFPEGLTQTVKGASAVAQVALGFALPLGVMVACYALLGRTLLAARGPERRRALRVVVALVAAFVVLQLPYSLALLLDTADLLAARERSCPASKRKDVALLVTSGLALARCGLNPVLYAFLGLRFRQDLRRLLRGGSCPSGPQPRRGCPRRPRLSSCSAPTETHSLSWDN
Assay: Calcium assay of human CCR10 (inhibition of CTACK-induced increase in intracellular calcium ion concentration in hCCR10G16 cells)
Format: cell-based
Conditions: test compound 100 nmol/L; human recombinant CTACK; hCCR10G16 cells (KJMGER8/Namalwa-derived, Gα16 co-expressed); FLIPR or FDSS; read-out: Inhibitory rate (%) for an increase in calcium ion concentration
Outline: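 KJMGER8-derived hCCR10G16 cells (human CCR10 plus Gα16, expression induced 24 h with 10 nmol/L β-estradiol) were dye-loaded and preincubated with compound for 30 min at 37 °C, then stimulated with CTACK (300 nmol/L stock). Calcium flux over ~5 min (max−min fluorescence) gave percent inhibition versus DMSO control.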

| inhibition at 0.1 µM [%] | SMILES |
| --- | --- |
| 62.3 | Cc1ccc(Cl)c(Nc2c(C(=O)N3CCC4(CC3)OCc3ccccc34)cnc3c(S(=O)(=O)NC(=O)NC4CCOCC4)cnn23)c1 [a-81, 7-(2-Chloro-5-methylphenylamino)-6-[3H-spiro(isobenzofuran-1,4′-piperidine)-1′-carbonyl]-N-(tetrahydro-2H-pyran-4-ylcarbamoyl)pyrazolo[1,5-a]pyrimidine-3-sulfonamide] |
| 75.3 | Cc1ccc(Cl)c(Nc2c(C(=O)N3CCC4(CC3)OCc3ccccc34)cnc3c(S(=O)(=O)NC(=O)NCC(F)(F)F)cnn23)c1 [a-82, 7-(2-Chloro-5-methylphenylamino)-6-[3H-spiro(isobenzofuran-1,4′-piperidine)-1′-carbonyl]-N-(2,2,2-trifluoroethylcarbamoyl)pyrazolo[1,5-a]pyrimidine-3-sulfonamide] |
